The target in one data set is T1, mouse liver COMT (Mus musculus, UniProt O88587).
T1 construct: Aliquots of 0.5 ml of liver homogenates were preincubated; from tissue; host or cells: mouse liver homogenate (NMRI mice, dosed orally; ex vivo activity)
T1 sequence (O88587 1-265): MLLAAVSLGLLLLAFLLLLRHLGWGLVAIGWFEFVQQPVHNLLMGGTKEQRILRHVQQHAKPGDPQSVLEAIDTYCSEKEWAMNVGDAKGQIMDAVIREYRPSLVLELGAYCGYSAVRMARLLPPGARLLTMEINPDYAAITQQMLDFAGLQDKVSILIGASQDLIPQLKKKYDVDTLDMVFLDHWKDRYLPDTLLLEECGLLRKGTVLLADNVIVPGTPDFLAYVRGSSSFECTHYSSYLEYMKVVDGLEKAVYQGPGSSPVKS
As to the kind of experiment: Mouse liver COMT activity after oral administration of test compounds. It is filed as in vivo. The settings on record: 3 mg/kg oral, 3 h after administration.

The test system of data set [1] is Neuro 2A mouse neuroblastoma cells. Briefly: Cell toxicity: Neuro 2A cell viability (calcein-AM). It is filed as cell-based. The settings on record: Neuro 2A cells, 30 μM, 24 h exposure.
The next data set deals with T2, rat liver COMT (Rattus norvegicus, UniProt P22734).
T2 construct: the organs were immediately removed and homogenised in 5 mM phosphate buffer of pH 7.8; from tissue; host or cells: rat liver homogenate (Wistar rats, dosed orally; ex vivo activity)
T2 sequence (P22734 1-264): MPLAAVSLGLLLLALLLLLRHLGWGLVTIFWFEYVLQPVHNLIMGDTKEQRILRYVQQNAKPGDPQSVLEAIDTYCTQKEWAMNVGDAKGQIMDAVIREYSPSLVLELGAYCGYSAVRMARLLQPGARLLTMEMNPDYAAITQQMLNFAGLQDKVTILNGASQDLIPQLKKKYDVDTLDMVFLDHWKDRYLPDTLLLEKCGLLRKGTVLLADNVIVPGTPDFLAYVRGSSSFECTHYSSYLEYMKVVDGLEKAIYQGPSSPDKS
Briefly: Rat liver COMT activity after oral administration of test compounds. It is filed as in vivo. The settings on record: 3 mg/kg oral.

Data set [2] has as its system plasma levels of L-DOPA and 3-O-methyl-L-DOPA (3-OMD). Briefly: Levels of L-DOPA and 3-O-methyl-L-DOPA in plasma of rats treated with L-DOPA plus benserazide. It is filed as in vivo, rat. The settings on record: 3 mg/kg oral, 2 h after administration; for L-DOPA % increase (plasma level, % control) / 3-OMD % reduction (plasma level, % control): L-DOPA plus benserazide 1 h before plasma collection; for 3-OMD % reduction (plasma level, % control): given with minus sign; for L-Dopa/3-OMD: plasma ratio.

These results are taken from US20200102295A1, “NITROCATECHOL DERIVATIVES AS COMT INHIBITORS” (BIAL - PORTELA & CA, S.A., priority 2005, published 2020).

The structures appear in SMILES notation.

As for `O=[N+]([O-])c1cc(-c2nc(-c3c[n+]([O-])ccc3C(F)(F)F)no2)cc(O)c1O` [Compound 18, 3-Nitro-5-[3-(1-oxy-4-trifluoromethyl-pyridin-3-yl)-[1,2,4]oxadiazol-5-yl]-benzene-1,2-diol], at mouse liver COMT, the “COMT activity (% of control)” value is on record as 21.2 % of control. The “% of viable cells” value in data set [1] is given as 93.4%. Moreover, the “Rat Liver COMT activity (% control)” value on rat liver COMT (1 h after administration) is recorded as 5.2 % control; on rat liver COMT (3 h after administration) it was 19.9 % control; at rat liver COMT (6 h after administration), 43.0 % control; on rat liver COMT (9 h after administration), 57.4 % control. Also, the “L-DOPA % increase (plasma level, % control)” value (from here on “L-DOPA % increase”) in data set [2] is reported as 61.4%. The “3-OMD % reduction (plasma level, % control)” value (“3-OMD % reduction” for short) in data set [2] is reported as −63.9%. Further, in data set [2], the L-Dopa/3-OMD was determined as 4.5.
As for `CSc1ccc(-c2noc(-c3cc(O)c(O)c([N+](=O)[O-])c3)n2)c[n+]1[O-]` [Compound 27, 5-[3-(6-Methylsulfanyl-1-oxy-pyridin-3-yl)-[1,2,4]oxadiazol-5-yl]-3-nitro-benzene-1,2-diol], on mouse liver COMT, the “COMT activity (% of control)” value is on record as 47.5 % of control. For the same compound, the “% of viable cells” value in data set [1] is recorded as 95.7%.
For `O=[N+]([O-])c1cc(-c2nc(-c3ccc(C(F)(F)F)[n+]([O-])c3)no2)cc(O)c1O` [Compound 28, 3-Nitro-5-[3-(1-oxy-6-trifluoromethyl-pyridin-3-yl)-[1,2,4]oxadiazol-5-yl]-benzene-1,2-diol] the same measures were 11.3 % of control and 87.0%.
As for `Cc1c(-c2noc(-c3cc(O)c(O)c([N+](=O)[O-])c3)n2)ccc(C(F)(F)F)[n+]1[O-]` [Compound 29, 5-[3-(2-Methyl-1-oxy-6-trifluoromethyl-pyridin-3-yl)-[1,2,4]oxadiazol-5-yl]-3-nitro-benzene-1,2-diol], the “COMT activity (% of control)” value at mouse liver COMT is given as 10.9 % of control. Moreover, in data set [1], the “% of viable cells” value is 62.2%. Also, the “Rat Liver COMT activity (% control)” value is 1.2 % control on rat liver COMT (1 h after administration), 18.5 % control on rat liver COMT (3 h after administration), 39.7 % control on rat liver COMT (6 h after administration) and 56.4 % control at rat liver COMT (9 h after administration). Besides, the “L-DOPA % increase” value in data set [2] is on record as 105.1%. For the same compound, in data set [2], the “3-OMD % reduction” value is given as −80.7%. Further, in data set [2], the L-Dopa/3-OMD was determined as 10.6.
In the case of `Cc1cc(C(F)(F)F)c(-c2noc(-c3cc(O)c(O)c([N+](=O)[O-])c3)n2)c[n+]1[O-]` [Compound 30, 5-[3-(6-Methyl-1-oxy-4-trifluoromethyl-pyridin-3-yl)-[1,2,4]oxadiazol-5-yl]-3-nitro-benzene-1,2-diol], the “COMT activity (% of control)” value on mouse liver COMT is listed as 8.8 % of control. Also, the “% of viable cells” value in data set [1] is given as 81.8%. Moreover, the “Rat Liver COMT activity (% control)” value came to 6.3 % control at rat liver COMT (1 h after administration), 34.8 % control on rat liver COMT (3 h after administration), 41.2 % control at rat liver COMT (6 h after administration) and 54.5 % control at rat liver COMT (9 h after administration). The “L-DOPA % increase” value in data set [2] worked out at 103.5%. The “3-OMD % reduction” value in data set [2] was −75.0%. Further, in data set [2], the L-Dopa/3-OMD amounted to 8.1.
As for `Cc1cc(C(F)(F)F)c(-c2noc(-c3cc(O)c(O)c([N+](=O)[O-])c3)n2)c(C)[n+]1[O-]` [Compound 31, 5-[3-(2,6-Dimethyl-1-oxy-4-trifluoromethyl-pyridin-3-yl)-[1,2,4]oxadiazol-5-yl]-3-nitro-benzene-1,2-diol], the “COMT activity (% of control)” value on mouse liver COMT is reported as 0.8 % of control. Besides, in data set [1], the “% of viable cells” value is reported as 37.2%.
For `Cc1c(-c2noc(-c3cc(O)c(O)c([N+](=O)[O-])c3)n2)c(C(F)(F)F)cc(-c2ccccc2)[n+]1[O-]` [Compound 32, 5-[3-(2-Methyl-1-oxy-6-phenyl-4-trifluoromethyl-pyridin-3-yl)-[1,2,4]oxadiazol-5-yl]-3-nitro-benzene-1,2-diol] the same measures were 9.7 % of control and 26.6%.
For `Cc1cc(C(F)(F)F)c(-c2noc(-c3cc(O)c(O)c([N+](=O)[O-])c3)n2)c(-c2ccccc2)[n+]1[O-]` [Compound 33, 5-[3-(6-Methyl-1-oxy-2-phenyl-4-trifluoromethyl-pyridin-3-yl)-[1,2,4]oxadiazol-5-yl]-3-nitro-benzene-1,2-diol], in that order: 39.8 % of control and 45.0%.
For `Cc1ccc(-c2noc(-c3cc(O)c(O)c([N+](=O)[O-])c3)n2)c(Br)[n+]1[O-]` [Compound 36, 5-[3-(2-Bromo-6-methyl-1-oxy-pyridin-3-yl)-[1,2,4]oxadiazol-5-yl]-3-nitro-benzene-1,2-diol] the same measures were 22.9 % of control and 76.3%.
Regarding `Cc1cc(C)[n+]([O-])c(Cl)c1-c1noc(-c2cc(O)c(O)c([N+](=O)[O-])c2)n1` [Compound 37, 5-[3-(2-Chloro-4,6-dimethyl-1-oxy-pyridin-3-yl)-[1,2,4]oxadiazol-5-yl]-3-nitro-benzene-1,2-diol], at mouse liver COMT, the “COMT activity (% of control)” value is listed as 42.5 % of control. Besides, in data set [1], the “% of viable cells” value is 92.3%.
For `Cc1cc(C)[n+]([O-])c(Br)c1-c1noc(-c2cc(O)c(O)c([N+](=O)[O-])c2)n1` [Compound 38, 5-[3-(2-Bromo-4,6-dimethyl-1-oxy-pyridin-3-yl)-[1,2,4]oxadiazol-5-yl]-3-nitro-benzene-1,2-diol], in that order: 16.3 % of control and 86.0%.
On to `O=[N+]([O-])c1cc(-c2nc(Cc3ccc[n+]([O-])c3)no2)cc(O)c1O` [Compound 39, 3-Nitro-5-[3-(1′-oxy-pyridin-3-ylmethyl)-[1,2,4]oxadiazol-5-yl]-benzenediol], for which, on mouse liver COMT, the “COMT activity (% of control)” value is reported as 53.8 % of control. The “% of viable cells” value in data set [1] is 94.9%.
For `Cc1c(C)c(C)[n+]([O-])c(Br)c1-c1noc(-c2cc(O)c(O)c([N+](=O)[O-])c2)n1` [Compound 40, 5-[3-(2-Bromo-4,5,6-trimethyl-1-oxy-pyridin-3-yl)-[1,2,4]oxadiazol-5-yl]-3-nitrobenzene-1,2-diol], in that order: 55.2 % of control and 69.1%.
On to `Cc1c(C)c(C)[n+]([O-])c(Cl)c1-c1noc(-c2cc(O)c(O)c([N+](=O)[O-])c2)n1` [Compound 41, 5-[3-(2-Chloro-4,5,6-trimethyl-1-oxy-pyridin-3-yl)-[1,2,4]oxadiazol-5-yl]-3-nitrobenzene-1,2-diol], for which the “COMT activity (% of control)” value at mouse liver COMT was 14 % of control. In addition, in data set [1], the “% of viable cells” value is given as 95.1%. For the same compound, the “Rat Liver COMT activity (% control)” value on rat liver COMT (1 h after administration) worked out at 21.2 % control; on rat liver COMT (3 h after administration) it was 9.3 % control; at rat liver COMT (6 h after administration), 18.8 % control; on rat liver COMT (9 h after administration) it was 39.7 % control. The “L-DOPA % increase” value in data set [2] amounted to 95.2%. In data set [2], the “3-OMD % reduction” value was −72.3%. Moreover, in data set [2], the L-Dopa/3-OMD was 7.1.
As for `Cc1c(Cl)c(C)[n+]([O-])c(Cl)c1-c1noc(-c2cc(O)c(O)c([N+](=O)[O-])c2)n1` [Compound 45, 5-[3-(2,5-Dichloro-4,6-dimethyl-1-oxy-pyridin-3-yl)-[1,2,4]oxadiazol-5-yl]-3-nitrobenzene-1,2-diol], at mouse liver COMT, the “COMT activity (% of control)” value is 30.4 % of control. Also, the “% of viable cells” value in data set [1] was 86.6%. Besides, in data set [2], the “L-DOPA % increase” value is 100.8%; the “3-OMD % reduction” value was −54.3%; the L-Dopa/3-OMD came to 4.4.
On to `Cc1c(-c2noc(-c3cc(O)c(O)c([N+](=O)[O-])c3)n2)c[n+]([O-])c(C)c1C` [Compound 46, 3-Nitro-5-[3-(4,5,6-trimethyl-1-oxy-pyridin-3-yl)-[1,2,4]oxadiazol-5-yl]-benzene-1,2-diol], for which, at mouse liver COMT, the “COMT activity (% of control)” value was 43.1 % of control. Further, the “% of viable cells” value in data set [1] is recorded as 53.0%.
In the case of `CCN(CC)C(=O)/C(C#N)=C/c1cc(O)c(O)c([N+](=O)[O-])c1` [Entacapone, (E)-2-cyano-N,N-diethyl-3-(3,4-dihydroxy-5-nitrophenyl)acrylamide, reference compound], in data set [2], the “L-DOPA % increase” value is reported as 68.5%; the “3-OMD % reduction” value was −55.6%; the L-Dopa/3-OMD is recorded as 3.8.
